Experiments:
[1] = molecular target: Cannabinoid receptor 2 (Homo sapiens) (UniProt P34972); test: CB2 (h) Eurofins-Cerep binding assay; parameters: ligand concentration 0.8 nM; settings: filed as agonist, Compound concentration 10.0 uM
[2] = molecular target: Muscarinic acetylcholine receptor M3 (Homo sapiens) (UniProt P20309); test: M3 (h) Eurofins-Cerep binding assay; parameters: ligand concentration 0.2 nM; settings: filed as antagonist, Compound concentration 10.0 uM
[3] = molecular target: Peroxisome proliferator-activated receptor gamma (Homo sapiens) (UniProt P37231); test: PPARgamma (h) Eurofins-Cerep binding assay; parameters: ligand concentration 5 nM; settings: filed as agonist, Compound concentration 10.0 uM
Chain of Peroxisome proliferator-activated receptor gamma (Homo sapiens) (P37231 whole entry): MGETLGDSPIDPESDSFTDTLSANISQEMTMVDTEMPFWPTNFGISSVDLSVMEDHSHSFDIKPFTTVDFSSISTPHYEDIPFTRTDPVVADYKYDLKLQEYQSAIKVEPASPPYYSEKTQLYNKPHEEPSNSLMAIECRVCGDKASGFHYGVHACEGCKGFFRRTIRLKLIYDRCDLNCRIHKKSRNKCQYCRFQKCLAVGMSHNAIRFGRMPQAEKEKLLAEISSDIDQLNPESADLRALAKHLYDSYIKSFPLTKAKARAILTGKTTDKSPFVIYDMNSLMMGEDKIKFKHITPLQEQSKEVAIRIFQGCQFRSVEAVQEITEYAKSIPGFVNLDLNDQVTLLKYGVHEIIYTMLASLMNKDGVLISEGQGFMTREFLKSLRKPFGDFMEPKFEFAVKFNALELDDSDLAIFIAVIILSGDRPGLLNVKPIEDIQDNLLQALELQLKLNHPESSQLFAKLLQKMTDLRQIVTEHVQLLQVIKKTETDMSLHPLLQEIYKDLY

[4] = molecular target: Glutamate NMDA receptor (Rattus norvegicus) (UniProt P35439+Q00959+Q00960+Q00961+Q62645+Q8VHN2+Q9R1M7); test: PCP Eurofins-Cerep binding assay; type: protein-complex assay; parameters: ligand concentration 10 nM; settings: filed as antagonist, Compound concentration 10.0 uM
[5] = molecular target: 5-hydroxytryptamine receptor 2A (Homo sapiens) (UniProt P28223); test: 5-HT2A (h) Eurofins-Cerep binding assay; parameters: ligand concentration 0.5 nM; settings: filed as antagonist, Compound concentration 10.0 uM
[6] = molecular target: Androgen receptor (Homo sapiens) (UniProt P10275); test: AR (h) Eurofins-Cerep binding assay; parameters: ligand concentration 1 nM; settings: filed as agonist, Compound concentration 10.0 uM
[7] = molecular target: L-type Ca2+ channel (diltiazem site, benzothiazepines) (Rattus norvegicus, UniProt P22002+P27732+Q02485); test: Ca2+ channel (L, diltiazem site) (benzothiazepines) Eurofins-Cerep binding assay; type: protein assay; parameters: incubation time 120 min, incubation temperature RT, ligand concentration 15 nM; settings: rat cerebral cortex, probe [3H]diltiazem (15 nM), compound concentration 10 uM, read-out: % Inhibition of Control Specific Binding (Mean n=2)
[8] = molecular target: Sodium- and chloride-dependent GABA transporter 1 (Rattus norvegicus) (UniProt P23978); test: GABA transporter Eurofins-Cerep binding assay; parameters: ligand concentration 10 nM; settings: filed as antagonist, Compound concentration 10.0 uM
[9] = molecular target: Protein-tyrosine kinase 6 (Homo sapiens) (UniProt Q13882); settings: Compound concentration 1000.0 nM
[10] = molecular target: Peripheral plasma membrane protein CASK (Homo sapiens) (UniProt O14936); settings: Compound concentration 1000.0 nM
Chain of Peripheral plasma membrane protein CASK (Homo sapiens) (O14936 whole entry): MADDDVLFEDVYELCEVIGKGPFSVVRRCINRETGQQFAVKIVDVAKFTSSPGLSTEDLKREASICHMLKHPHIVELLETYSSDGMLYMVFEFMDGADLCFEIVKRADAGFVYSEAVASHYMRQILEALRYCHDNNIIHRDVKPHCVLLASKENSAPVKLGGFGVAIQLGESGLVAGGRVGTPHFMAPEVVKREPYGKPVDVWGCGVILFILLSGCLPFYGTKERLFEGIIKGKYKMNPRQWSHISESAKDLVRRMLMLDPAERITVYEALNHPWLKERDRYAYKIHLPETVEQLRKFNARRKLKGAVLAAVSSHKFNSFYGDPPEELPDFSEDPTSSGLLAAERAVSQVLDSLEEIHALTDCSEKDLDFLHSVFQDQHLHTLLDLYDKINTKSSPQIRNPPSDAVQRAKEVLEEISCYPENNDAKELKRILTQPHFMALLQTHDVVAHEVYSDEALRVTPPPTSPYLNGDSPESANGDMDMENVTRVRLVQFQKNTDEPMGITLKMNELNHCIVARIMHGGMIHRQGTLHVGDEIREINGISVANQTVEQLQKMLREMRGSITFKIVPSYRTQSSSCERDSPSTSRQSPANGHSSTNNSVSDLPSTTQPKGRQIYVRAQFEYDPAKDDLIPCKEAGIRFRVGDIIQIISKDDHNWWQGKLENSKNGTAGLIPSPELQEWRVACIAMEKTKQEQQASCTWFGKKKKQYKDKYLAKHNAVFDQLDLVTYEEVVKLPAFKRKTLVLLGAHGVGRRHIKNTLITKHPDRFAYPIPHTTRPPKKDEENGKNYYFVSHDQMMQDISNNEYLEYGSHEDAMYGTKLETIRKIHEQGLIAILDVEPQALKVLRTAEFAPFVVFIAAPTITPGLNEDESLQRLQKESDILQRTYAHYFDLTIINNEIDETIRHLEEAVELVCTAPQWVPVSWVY

[11] = molecular target: Ephrin type-B receptor 6 (Homo sapiens) (UniProt O15197); settings: Compound concentration 1000.0 nM
[12] = molecular target: Receptor tyrosine-protein kinase erbB-4 (Homo sapiens) (UniProt Q15303); settings: Compound concentration 1000.0 nM
Chain of Receptor tyrosine-protein kinase erbB-4 (Homo sapiens) (Q15303 whole entry): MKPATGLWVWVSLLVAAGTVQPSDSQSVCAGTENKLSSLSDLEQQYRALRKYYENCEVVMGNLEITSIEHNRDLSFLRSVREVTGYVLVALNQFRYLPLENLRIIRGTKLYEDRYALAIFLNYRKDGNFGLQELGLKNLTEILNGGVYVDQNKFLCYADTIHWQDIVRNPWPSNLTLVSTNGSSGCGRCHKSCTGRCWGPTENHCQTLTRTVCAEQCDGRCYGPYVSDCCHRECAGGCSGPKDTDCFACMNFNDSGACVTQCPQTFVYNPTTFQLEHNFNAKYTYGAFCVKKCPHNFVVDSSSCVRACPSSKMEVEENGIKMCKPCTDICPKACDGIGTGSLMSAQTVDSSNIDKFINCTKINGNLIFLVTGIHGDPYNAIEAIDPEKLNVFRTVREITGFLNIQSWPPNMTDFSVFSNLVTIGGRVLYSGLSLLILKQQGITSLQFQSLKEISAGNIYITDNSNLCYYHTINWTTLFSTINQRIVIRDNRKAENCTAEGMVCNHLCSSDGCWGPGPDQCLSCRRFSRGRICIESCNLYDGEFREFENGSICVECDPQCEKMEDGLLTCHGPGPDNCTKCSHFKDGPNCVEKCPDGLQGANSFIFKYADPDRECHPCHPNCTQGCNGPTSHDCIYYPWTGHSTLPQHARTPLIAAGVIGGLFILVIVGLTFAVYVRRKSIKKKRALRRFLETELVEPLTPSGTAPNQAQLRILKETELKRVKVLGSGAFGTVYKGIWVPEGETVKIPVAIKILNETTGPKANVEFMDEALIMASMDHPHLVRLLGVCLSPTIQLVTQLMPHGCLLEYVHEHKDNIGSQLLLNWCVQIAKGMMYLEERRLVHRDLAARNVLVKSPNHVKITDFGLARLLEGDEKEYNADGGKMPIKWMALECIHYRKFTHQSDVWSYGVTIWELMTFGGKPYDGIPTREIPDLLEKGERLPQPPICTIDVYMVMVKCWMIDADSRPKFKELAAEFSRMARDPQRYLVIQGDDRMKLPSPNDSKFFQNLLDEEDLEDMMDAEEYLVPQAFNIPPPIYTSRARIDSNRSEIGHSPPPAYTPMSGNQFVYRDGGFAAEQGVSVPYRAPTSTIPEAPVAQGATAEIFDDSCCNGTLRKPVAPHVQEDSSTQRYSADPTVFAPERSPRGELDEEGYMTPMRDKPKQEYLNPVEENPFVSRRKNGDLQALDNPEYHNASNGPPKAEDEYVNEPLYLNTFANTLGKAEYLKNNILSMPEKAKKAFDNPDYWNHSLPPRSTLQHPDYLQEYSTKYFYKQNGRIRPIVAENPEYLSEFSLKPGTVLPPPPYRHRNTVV

[13] = molecular target: Mitogen-activated protein kinase 7 (Homo sapiens) (UniProt Q13164); settings: Compound concentration 1000.0 nM
[14] = molecular target: Fibroblast growth factor receptor 2 (Homo sapiens) (UniProt P21802); settings: Compound concentration 1000.0 nM
[15] = molecular target: Vascular endothelial growth factor receptor 1 (Homo sapiens) (UniProt P17948); settings: Compound concentration 1000.0 nM
[16] = molecular target: Receptor-type tyrosine-protein kinase FLT3 (Homo sapiens) (UniProt P36888); settings: Compound concentration 1000.0 nM
[17] = molecular target: Tyrosine-protein kinase FRK (Homo sapiens) (UniProt P42685); settings: Compound concentration 1000.0 nM
[18] = molecular target: Cyclin-G-associated kinase (Homo sapiens) (UniProt O14976); settings: Compound concentration 1000.0 nM
[19] = molecular target: Inhibitor of nuclear factor kappa-B kinase subunit epsilon (Homo sapiens) (UniProt Q14164); settings: Compound concentration 1000.0 nM
[20] = molecular target: Tyrosine-protein kinase JAK3 (Homo sapiens) (UniProt P52333); settings: Compound concentration 1000.0 nM
[21] = system: Mast/stem cell growth factor receptor Kit (Homo sapiens), P10721 [D816H]; settings: Compound concentration 1000.0 nM
Chain of Mast/stem cell growth factor receptor Kit (Homo sapiens), P10721 [D816H] (P10721 whole entry D816H): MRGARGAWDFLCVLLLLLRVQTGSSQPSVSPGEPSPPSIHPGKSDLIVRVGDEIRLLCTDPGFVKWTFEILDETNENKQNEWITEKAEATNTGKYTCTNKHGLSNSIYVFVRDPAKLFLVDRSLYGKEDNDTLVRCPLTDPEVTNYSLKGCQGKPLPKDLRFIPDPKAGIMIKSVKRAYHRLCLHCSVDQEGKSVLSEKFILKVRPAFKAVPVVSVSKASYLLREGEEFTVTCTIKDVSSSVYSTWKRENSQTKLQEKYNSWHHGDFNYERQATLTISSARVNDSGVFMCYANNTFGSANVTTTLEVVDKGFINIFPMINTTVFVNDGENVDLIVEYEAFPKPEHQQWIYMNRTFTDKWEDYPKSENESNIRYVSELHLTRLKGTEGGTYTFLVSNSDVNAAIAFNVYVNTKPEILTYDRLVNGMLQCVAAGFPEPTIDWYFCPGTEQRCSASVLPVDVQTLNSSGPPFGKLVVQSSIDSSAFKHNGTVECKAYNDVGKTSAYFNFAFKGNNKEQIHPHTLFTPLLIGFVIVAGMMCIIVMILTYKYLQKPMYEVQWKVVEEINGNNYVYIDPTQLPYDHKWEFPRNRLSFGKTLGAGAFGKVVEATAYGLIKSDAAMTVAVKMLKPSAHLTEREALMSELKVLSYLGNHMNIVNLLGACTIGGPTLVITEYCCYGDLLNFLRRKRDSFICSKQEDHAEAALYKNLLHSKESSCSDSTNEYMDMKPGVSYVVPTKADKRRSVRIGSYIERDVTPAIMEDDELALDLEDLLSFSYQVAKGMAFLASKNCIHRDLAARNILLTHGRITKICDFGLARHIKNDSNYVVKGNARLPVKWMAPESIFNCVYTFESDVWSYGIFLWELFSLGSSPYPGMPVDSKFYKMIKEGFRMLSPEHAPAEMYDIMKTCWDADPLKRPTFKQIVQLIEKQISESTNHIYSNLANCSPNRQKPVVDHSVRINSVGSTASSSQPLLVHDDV

[22] = system: Mast/stem cell growth factor receptor Kit (Homo sapiens), P10721 [D816V]; settings: Compound concentration 1000.0 nM
Chain of Mast/stem cell growth factor receptor Kit (Homo sapiens), P10721 [D816V] (P10721 whole entry D816V): as the sequence (P10721 whole entry D816H) above, with H816V counted along it

[23] = molecular target: Mitogen-activated protein kinase kinase kinase 2 (Homo sapiens) (UniProt Q9Y2U5); settings: Compound concentration 1000.0 nM
[24] = molecular target: Tyrosine-protein kinase Mer (Homo sapiens) (UniProt Q12866); settings: Compound concentration 1000.0 nM
[25] = molecular target: Serine/threonine-protein kinase Nek4 (Homo sapiens) (UniProt P51957); settings: Compound concentration 1000.0 nM
[26] = molecular target: Mitogen-activated protein kinase 13 (Homo sapiens) (UniProt O15264); settings: Compound concentration 1000.0 nM
Chain of Mitogen-activated protein kinase 13 (Homo sapiens) (O15264 whole entry): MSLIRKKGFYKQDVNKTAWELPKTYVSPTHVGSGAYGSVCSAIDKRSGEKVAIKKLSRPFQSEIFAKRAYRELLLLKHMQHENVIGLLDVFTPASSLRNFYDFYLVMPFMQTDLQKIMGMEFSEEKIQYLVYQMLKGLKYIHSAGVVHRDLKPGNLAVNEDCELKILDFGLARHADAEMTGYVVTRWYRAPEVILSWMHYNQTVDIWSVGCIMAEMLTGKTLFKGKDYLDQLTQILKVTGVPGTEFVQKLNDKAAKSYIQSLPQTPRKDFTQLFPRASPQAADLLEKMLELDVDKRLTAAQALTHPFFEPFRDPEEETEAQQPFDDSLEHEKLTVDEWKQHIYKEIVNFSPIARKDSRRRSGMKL

[27] = molecular target: 3-phosphoinositide-dependent protein kinase 1 (Homo sapiens) (UniProt O15530); settings: Compound concentration 1000.0 nM
[28] = molecular target: Phosphatidylinositol 4-phosphate 3-kinase C2 domain-containing subunit beta (Homo sapiens) (UniProt O00750); settings: Compound concentration 1000.0 nM
[29] = system: Phosphatidylinositol 4,5-bisphosphate 3-kinase catalytic subunit alpha isoform (Homo sapiens), P42336 [E545A]; settings: Compound concentration 1000.0 nM
[30] = system: Phosphatidylinositol 4,5-bisphosphate 3-kinase catalytic subunit alpha isoform (Homo sapiens), P42336 [I800L]; settings: Compound concentration 1000.0 nM
[31] = molecular target: Phosphatidylinositol 4,5-bisphosphate 3-kinase catalytic subunit gamma isoform (Homo sapiens) (UniProt P48736); settings: Compound concentration 1000.0 nM
[32] = molecular target: Proto-oncogene tyrosine-protein kinase ROS (Homo sapiens) (UniProt P08922); settings: Compound concentration 1000.0 nM
[33] = molecular target: Ribosomal protein S6 kinase alpha-2 (Homo sapiens) (UniProt Q15349); settings: Compound concentration 1000.0 nM
[34] = molecular target: Proto-oncogene tyrosine-protein kinase Src (Homo sapiens) (UniProt P12931); settings: Compound concentration 1000.0 nM
[35] = molecular target: Serine/threonine-protein kinase 35 (Homo sapiens) (UniProt Q8TDR2); settings: Compound concentration 1000.0 nM
[36] = molecular target: Serine/threonine-protein kinase TBK1 (Homo sapiens) (UniProt Q9UHD2); settings: Compound concentration 1000.0 nM
[37] = molecular target: Phosphatidylinositol 3-kinase catalytic subunit type 3 (Homo sapiens) (UniProt Q8NEB9); settings: Compound concentration 1000.0 nM
[38] = molecular target: Wee1-like protein kinase (Homo sapiens) (UniProt P30291); settings: Compound concentration 1000.0 nM
[39] = molecular target: Serine/threonine-protein kinase WNK4 (Homo sapiens) (UniProt Q96J92); settings: Compound concentration 1000.0 nM
[40] = molecular target: Serine/threonine-protein kinase 25 (Homo sapiens) (UniProt O00506); settings: Compound concentration 1000.0 nM
[41] = molecular target: D(1B) dopamine receptor (Homo sapiens) (UniProt P21918); settings: Compound concentration 10.0 uM
[42] = molecular target: Histamine H2 receptor (Homo sapiens) (UniProt P25021); settings: Compound concentration 10.0 uM
Chain of Histamine H2 receptor (Homo sapiens) (P25021 whole entry): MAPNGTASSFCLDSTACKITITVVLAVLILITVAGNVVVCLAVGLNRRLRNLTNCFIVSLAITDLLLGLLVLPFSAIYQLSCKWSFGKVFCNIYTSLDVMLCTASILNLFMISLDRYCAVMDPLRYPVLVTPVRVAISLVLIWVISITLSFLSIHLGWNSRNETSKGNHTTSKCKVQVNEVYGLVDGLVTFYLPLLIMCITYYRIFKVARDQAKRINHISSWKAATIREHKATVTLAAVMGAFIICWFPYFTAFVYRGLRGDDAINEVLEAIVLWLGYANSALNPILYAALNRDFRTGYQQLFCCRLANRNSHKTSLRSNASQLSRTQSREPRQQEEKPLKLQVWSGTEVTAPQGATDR

[43] = molecular target: Muscarinic acetylcholine receptor M3 (Homo sapiens) (UniProt P20309); settings: Compound concentration 10.0 uM
[44] = species on record: Rattus norvegicus; settings: Compound concentration 10.0 uM

Chain of Muscarinic acetylcholine receptor M3 (Homo sapiens) (P20309 whole entry, looked up): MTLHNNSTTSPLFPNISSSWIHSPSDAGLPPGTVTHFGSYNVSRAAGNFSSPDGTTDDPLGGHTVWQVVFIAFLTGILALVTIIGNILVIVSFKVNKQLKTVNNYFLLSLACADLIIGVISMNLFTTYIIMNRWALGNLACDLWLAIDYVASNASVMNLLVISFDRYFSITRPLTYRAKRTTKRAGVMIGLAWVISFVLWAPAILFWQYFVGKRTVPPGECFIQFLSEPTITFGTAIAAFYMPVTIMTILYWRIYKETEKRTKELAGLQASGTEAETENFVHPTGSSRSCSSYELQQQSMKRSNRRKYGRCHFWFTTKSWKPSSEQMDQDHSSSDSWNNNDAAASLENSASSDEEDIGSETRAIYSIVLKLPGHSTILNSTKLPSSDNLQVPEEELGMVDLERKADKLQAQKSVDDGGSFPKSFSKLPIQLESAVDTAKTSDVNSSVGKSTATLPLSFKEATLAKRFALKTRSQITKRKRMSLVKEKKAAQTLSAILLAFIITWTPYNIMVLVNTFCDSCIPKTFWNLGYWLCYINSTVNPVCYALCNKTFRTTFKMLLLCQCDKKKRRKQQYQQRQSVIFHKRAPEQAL

O=C(NS(=O)(=O)c1ccc(NCC2CCOCC2)c([N+](=O)[O-])c1)c1ccc(N2CCN(Cc3ccc(C(F)(F)F)cc3-c3ccc(Cl)cc3)CC2)cc1Oc1cnc2[nH]ccc2c1 [A-1210227]
% Inhibition of Control Specific Binding (Mean n=2) [1]: -13% | % Inhibition of Control Specific Binding (Mean n=2) [2]: 8.9% | % Inhibition of Control Specific Binding (Mean n=2) [3]: 9.3% | % Inhibition of Control Specific Binding (Mean n=2) [4]: 19.2% | % Inhibition of Control Specific Binding (Mean n=2) [5]: -0.1% | % Inhibition of Control Specific Binding (Mean n=2) [6]: -0.7% | inhibition at 120 min, 10 µM [7]: -124% | % Inhibition of Control Specific Binding (Mean n=2) [8]: -10.3% | residual activity [9]: 100% | residual activity [10]: 80% | residual activity [11]: 82% | residual activity [12]: 100% | residual activity [13]: 100% | residual activity [14]: 100% | residual activity [15]: 100% | residual activity [16]: 100% | residual activity [17]: 100% | residual activity [18]: 100% | residual activity [19]: 65% | residual activity [20]: 85% | residual activity [21]: 76% | residual activity [22]: 100% | residual activity [23]: 100% | residual activity [24]: 100% | residual activity [25]: 100% | residual activity [26]: 99% | residual activity [27]: 70% | residual activity [28]: 83% | residual activity [29]: 86% | residual activity [30]: 100% | residual activity [31]: 86% | residual activity [32]: 87% | residual activity [33]: 100% | residual activity [34]: 76% | residual activity [35]: 95% | residual activity [36]: 74% | residual activity [37]: 100% | residual activity [38]: 100% | residual activity [39]: 71% | residual activity [40]: 98% | inhibition [41]: 9.7% | inhibition [42]: 8.95% | inhibition [43]: 12.6% | inhibition [44]: 11.6%

CO[C@H]1CC[C@H](CNc2ccc(S(=O)(=O)NC(=O)c3ccc(N4CCN(CC5=C(c6ccc(Cl)cc6)CC(C)(C)CC5)CC4)cc3Oc3cnc4[nH]ccc4c3)cc2[N+](=O)[O-])CC1 [A-1211212]
% Inhibition of Control Specific Binding (Mean n=2) [1]: 21.4% | % Inhibition of Control Specific Binding (Mean n=2) [2]: 10.3% | % Inhibition of Control Specific Binding (Mean n=2) [3]: 28.5% | % Inhibition of Control Specific Binding (Mean n=2) [4]: 1.9% | % Inhibition of Control Specific Binding (Mean n=2) [5]: -5% | % Inhibition of Control Specific Binding (Mean n=2) [6]: -8.6% | inhibition at 120 min, 10 µM [7]: -6.2% | % Inhibition of Control Specific Binding (Mean n=2) [8]: -2.6% | residual activity [9]: 100% | residual activity [10]: 100% | residual activity [11]: 87% | residual activity [12]: 80% | residual activity [13]: 88% | residual activity [14]: 100% | residual activity [15]: 85% | residual activity [16]: 100% | residual activity [17]: 100% | residual activity [18]: 99% | residual activity [19]: 100% | residual activity [20]: 84% | residual activity [21]: 76% | residual activity [22]: 100% | residual activity [23]: 68% | residual activity [24]: 85% | residual activity [25]: 100% | residual activity [26]: 96% | residual activity [27]: 72% | residual activity [28]: 92% | residual activity [29]: 67% | residual activity [30]: 98% | residual activity [31]: 86% | residual activity [32]: 72% | residual activity [33]: 97% | residual activity [34]: 78% | residual activity [35]: 93% | residual activity [36]: 60% | residual activity [37]: 100% | residual activity [38]: 100% | residual activity [39]: 67% | residual activity [40]: 83% | inhibition [41]: 34.1% | inhibition [42]: 13.6% | inhibition [43]: 3.65% | inhibition [44]: 41.5%

Source: ChEMBL document CHEMBL4507310, “Data for DCP probe A-1211212” (2021)
